Several values for one entry are separate records, joined by “and”; a condition that tells them apart may be missing. Equal entries are not always repeated. Where two headings read alike, the source gives them in different places. Where only a bound is given, the exact number is not on record here.

Consider four compounds from patent publication EP2799074A1, “Iron bis-glycinate chelate for use in the oral treatment of anemia in patients with celiac disease” (Laboratori Baldacci S.P.A., priority 2009, dated 2011).

Series [1] deals with celiac subjects, with sideropenic anemia. In words: Efficiency comparison between oral iron bis-glycinate chelate (effervescent tablet of example 1) and conventional treatment in celiac patients; haemochromocytometric test. The format is in vivo, human. The following applies: for Serum iron values / Values of Ferritin: after initial therapy (Fe sulphate p.o. and/or sodium ferric gluconate i.v.); for Serum iron values / Values of Ferritin / Hb values: one patient per line. The text has this:
12 celiac subjects, with sideropenic anemia diagnosed according to the hemoglobin (Hb), ferritin and iron (serum iron) values obtained from the haemochromocytometric test were included in this experiment.
Celiac disease was diagnosed according to the clinical manifestations and histology reports regarding the intestinal mucosa.
These patients were then subjected to a therapy using the iron bis-glycinate chelate according to the invention, formulated in the effervescent tablet of example 1.
The hemoglobin (Hb), (Table 1), ferritin (Table 2) and serum iron (Table 3) values taken from each treated patient, both after the conventional therapy (oral and/or intravenous) and after the oral administration according to the present invention (effervescent tablet) were considered for the evaluation.
A therapy cycle corresponds to the treatment for 20 days with two effervescent tablets per day containing about 14 mg of iron ion per tablet and then, an effervescent tablet per day containing 14 mg of iron ion, for further 40 days.
The subsequent maintenance corresponds to the treatment for 20 days with two effervescent tablets per day containing about 14 mg of iron ion per tablet, every 3 months for about one year.
The hemoglobin, ferritin and serum iron blood values were determined after the first treatment cycle and the treatment was continued with repeated cycles according to the previously indicated methods.

Series [2] concerns celiac patients. The following applies: human, in vivo.
Protocol: (§1) All patients were initially treated with ferrous sulphate orally (1 tablet of ferrous sulphate, corresponding to 105 mg of iron ion) for 40 days and/or with sodium ferric gluconate by intravenous administration for a variable period of time according to the seriousness of the anemic status.
(§2) All patients were diagnosed with celiac disease through bioptic sampling and with serological tests. During the conventional therapy, the diet of said patients was controlled and corrected with gluten-free foods.
Series [3] concerns celiac patients. In words: Clinical records of celiac patients treated with conventional iron salts p.o. and i.v. (Examples 6-11).
Protocol: as §1, §2
The conditions of series [4]: with respect to mineral salts, such as ferrous sulphate; literature data; cited from earlier work.
The conditions of series [5]: cited from earlier work.
[6] abbreviates: Patient I, ferric iron i.v., Final values, 20 days.
Where [7] appears, read: Patient I, ferric iron i.v., Initial values, 20 days.
The mark [8] stands for this setting: Patient II, ferric iron i.v., Final values, few days.
Setting [9] is: Patient II, ferric iron i.v., Initial values, few days.
[10] abbreviates: Patient IV, ferric iron i.v., Final values, 20 days.
[11] abbreviates: Patient IV, ferric iron i.v., Initial values, 20 days.
The mark [12] stands for this setting: Patient VI, iron i.v., Final values, 20 days.
The mark [13] stands for this setting: Patient VI, iron i.v., Initial values, 20 days.
The mark [14] stands for this setting: Patient I, iron polymaltosate oral, Final values, 20 days.
[15] abbreviates: Patient I, iron polymaltosate oral, Initial values, 20 days.
Where [16] appears, read: Patient I, ferrous sulphate oral, Final values, 40 days.
Setting [17] is: Patient I, ferrous sulphate oral, Initial values, 40 days.
[18] abbreviates: Patient II, ferrous sulphate oral, Final values, 8/10 days.
Setting [19] is: Patient II, ferrous sulphate oral, Initial values, 8/10 days.
Where [20] appears, read: Patient III, ferrous sulphate oral, Final values, 40 days.
Where [21] appears, read: Patient III, ferrous sulphate oral, Initial values, 40 days.
Setting [22] is: Patient V, ferrous sulphate oral, Final values, 40 days.
Setting [23] is: Patient V, ferrous sulphate oral, Initial values, 40 days.

For the compound sodium ferric gluconate, the Serum iron values in series [1] came to 30 µg/dL. Also, the “Values of Ferritin” value in series [1] came out at 22 ng/mL. In addition, in the series on celiac patients [2] (iv), the “tolerability / adverse events of the treatment” value (from here on “tolerability / adverse events”) was “skin rush and asthmatic crisis”. Moreover, the Ferritin with celiac patients [3] (setting [6]) is listed as 30; in the series on celiac patients [3] (setting [7]), <5; in the series with celiac patients [3] (setting [8]), 33; in the series on celiac patients [3] (setting [9]), 31; in the series on celiac patients [3] (setting [10]) it was 42; in the series on celiac patients [3] (setting [11]) it was 21. Besides, the Ferritin in the series with celiac patients [3] (setting [12]) came to 81; with celiac patients [3] (setting [13]), 35. Besides, the Hb with celiac patients [3] (setting [6]) is 9.8; in the series on celiac patients [3] (Patient I, ferric iron i.v., Initial values, 20 days, 1 vial/day for 10 days, then 2 vials/day), 7.7; in the series with celiac patients [3] (Patient II, ferric iron i.v., Final values, few days, cycle not completed), 10.8; in the series with celiac patients [3] (Patient II, ferric iron i.v., Initial values, few days, cycle not completed) it was 10.4; in the series on celiac patients [3] (setting [10]), 10.6; in the series on celiac patients [3] (Patient IV, ferric iron i.v., Initial values, 20 days, 1 vial/day for 10 days, then 2 vials/day), 9.7. Moreover, the Hb with celiac patients [3] (setting [12]) amounted to 12.6; with celiac patients [3] (setting [13]), 10.2. The Serum iron in the series on celiac patients [3] (setting [6]) is reported as 48; in the series on celiac patients [3] (setting [7]), 19; in the series with celiac patients [3] (setting [8]), 49; with celiac patients [3] (setting [9]), 40; in the series on celiac patients [3] (setting [10]), 54; in the series with celiac patients [3] (setting [11]) it was 39. Further, the figures for the Serum iron with celiac patients [3] (setting [12]) and with celiac patients [3] (setting [13]) were 68 and 41, respectively. Moreover, the “values of Hb” value in the series with celiac patients [3] (Patient IV, iron i.v., cycles every 3/4 months) is recorded as “around 11 gr/dl”.

Consider `NCC(=O)[O-].NCC(=O)[O-].[Fe+2]` [Iron bis-glycinate chelate, iron bis-glycinate chelate], for which the “hemoglobin, ferritin and serum iron value” in series [1] (after I therapy cycle, celiac patients) was “considerably increases”. In addition, the Hb values in series [1] (after efferv. tab therapy 1st cycle: two effervescent tablets per day for 20 days, then one per day for 40 days) is 12.5 g/100 ml and 12.0 g/100 ml (2×) and 13.1 g/100 ml and 11.7 g/100 ml and 11.8 g/100 ml and 12.8 g/100 ml and 12.3 g/100 ml and 12.7 g/100 ml and 11.9 g/100 ml and 12.1 g/100 ml and 10.0 g/100 ml; in series [1] (after maintenance efferv. tab.: two tablets per day for 20 days every 3 months for about one year) it was 13.6 g/100 ml and 12.9 g/100 ml (2×) and 14.3 g/100 ml and 13.4 g/100 ml (2×) and 13.2 g/100 ml and 12.3 g/100 ml and 14.0 g/100 ml and 13.1 g/100 ml and 12.7 g/100 ml and 12.1 g/100 ml. In series [1] (oral treatment of 12 celiac patients with the effervescent tablet of example 1), the adverse effects entry is reported as “did not reveal any adverse effects worth mentioning”. The bioavailability entry in series [4] is reported as “greater bioavailability”. Also, in series [5] (different pH values of the gastrointestinal section), the hydrolysis result was “does not undergo hydrolysis”. The “separation into iron ion” value in series [5] (pH interval comprised between 3 and 10) was “not separated into iron ion”.

In the case of iron polymaltosate, in the series on celiac patients [2], the “tolerability / adverse events” value is “well tolerated”. In the series with celiac patients [3] (setting [14]), the Ferritin is 25, the Hb was 10.8 and the Serum iron is listed as 43. Besides, in the series on celiac patients [3] (setting [15]), the Ferritin is 29, the Hb was 10.6 and the Serum iron is 38.

`O=S(=O)([O-])[O-].[Fe+2]` [ferrous sulphate]: the Serum iron values in series [1] is 34 µg/dL and 16 µg/dL. In addition, the “Values of Ferritin” value in series [1] is 23 ng/mL and <5 ng/mL. Also, the “tolerability / adverse events” value with celiac patients [3] (Patient I - Female) is reported as “intestinal intolerance”. Besides, the Ferritin in the series on celiac patients [3] (setting [16]) turned out to be 38; in the series on celiac patients [3] (setting [17]) it was 32; with celiac patients [3] (setting [18]), 45; in the series on celiac patients [3] (setting [19]), 41; in the series on celiac patients [3] (setting [20]) it was 27; in the series with celiac patients [3] (setting [21]) it was 19. Besides, the Ferritin was 21 in the series on celiac patients [3] (setting [22]) and <5 with celiac patients [3] (setting [23]). Moreover, the Serum iron with celiac patients [3] (setting [16]) is listed as 48; with celiac patients [3] (setting [17]), 41; with celiac patients [3] (setting [18]), 68; in the series with celiac patients [3] (setting [19]) it was 55; in the series on celiac patients [3] (setting [20]) it was 38; with celiac patients [3] (setting [21]), 32. For the same compound, the Serum iron in the series on celiac patients [3] (setting [22]) was determined as 46; in the series on celiac patients [3] (setting [23]), 22. Moreover, the Hb with celiac patients [3] (Patient I, ferrous sulphate oral, Final values, duration 40 days) stood at 11.1; in the series on celiac patients [3] (Patient I, ferrous sulphate oral, Initial values, duration 40 days), 10.2; with celiac patients [3] (setting [18]), 12.3; in the series on celiac patients [3] (setting [19]) it was 11.6; with celiac patients [3] (setting [20]) it was 10; with celiac patients [3] (setting [21]), 9.1. Moreover, the Hb with celiac patients [3] (Patient V, ferrous sulphate oral, after several therapy cycles, Initial values, 40 days) is recorded as 8.4; in the series on celiac patients [3] (setting [22]), 9.7.
